Results taken from PMC3585964, “Tissue Inhibitor of Metalloproteinases-3 Peptides Inhibit Angiogenesis and Choroidal Neovascularization in Mice” (PLoS ONE, 2013).

Key:
[1] = system: VEGFR-1 (Flt-1)/Fc chimera binding to VEGF; test: Competitive ELISA, binding of sVEGFR-1/Fc to immobilized VEGF; design: species or system human; details: 50 ng/ml sVEGFR-1 (Flt-1)
Method: 96 well EIA/RIA strip plates (COSTAR) were coated with 80 ng/ml recombinant VEGF overnight at 4°C, washed and blocked with blocking buffer (1% BSA and 5% sucrose) overnight at 4°C. Series of dilutions were prepared for recombinant proteins representing WT-TIMP-3, NT2:CT3 and N-T3 in PBS or synthetic peptides corresponding to T3-loop 5, T3-loop 6, T3-N or T3-tail peptides in 0.5 M Tris-HCl (pH 7.5). The diluents were mixed with 50 ng/ml recombinant human VEGFR-2 (KDR/Fc chimera, recombinant human VEGFR-1 (Flt-1)/Fc chimera (R&D Systems, Minneapolis, MN) or control human lgG (Sigma Aldrich, St Louis, MO). The mixtures were then added to the VEGF-coated well in a final volume of 100 µL in PBS and incubated for 2 hours at room temperature. Bound VEGFR-2 was detected by HRP-conjugated anti-human lgG(Fc specific) (1∶1000).

[2] = system: laser-induced CNV in C57BL/6J mice; test: Laser-induced choroidal neovascularization (CNV); type: in vivo, mouse; details: intravitreal, immediately after laser burn, 14 days, C57BL6 mice
Method: All animal studies were approved by the Animal Care and Use Committee of the Cleveland Clinic (IACUC number ARC-08792) and conformed to the National Institutes of Health Guide for the Care and Use of Animals in Research and the ARVO statement for the use of animals in ophthalmic and vision research. All surgery was performed under ketamine/xylazine anesthesia with maximum effort devoted to minimizing suffering. Laser photocoagulation-induced rupture of Bruch’s membrane was used to generate CNV as previously described. Briefly, 4–5 week old C57BL/6J mice were anesthetized with ketamine hydrochloride (100 mg/kg body weight) and xylazine (10 mg/kg body weight) followed by1% Tropicamide (Alcon laboratories, Inc., Fort Worth, TX) for pupillary dilation. Three burns of 532-nm diode laser photocoagulation (Oculight; Iridex, Mountain View California; 50-µm spot size, 0.1 second duration, 200 mW) were delivered to each retina using a slit lamp delivery system and a hand held coverslip as a contact lens. Burns were performed in the 9, 12 and 3 o’clock positions of the posterior pole of the retina. […] Two weeks later, mice were anesthetized and perfused with fluorescein-labeled dextran (2×10^6 average molecular weight, Sigma Aldrich), choroidal flatmounts were prepared and CNV area measured. […]
Five mice were used for each dose of peptide, with three burns in each eye (n = 15–18 successful burns in each group). For quantitative analysis of lesion intensity and size, CNV images were batch processed using a custom macro generated in Image-Pro Plus 5.1 (Media Cybernetics, Silver Spring, MD). […] Mean intensity (range between 10–255 gray levels), perimeter, area, and mean diameter (pixels) were calculated for each ROI and exported to excel. […]
Figure 7 Inhibition of laser-induced CNV by TIMP-3 peptides. […] Effect of Tail peptides on CNV was evaluated by Fluorescein angiogram and Scanning Laser Ophthalmoscopy (SLO). […] CNV lesion size (area X density) was calculated for each dose of T3N-peptide (Fig. 7g), Loop6-peptide (Fig. 7h) and Tail-peptide (fig. 7i).

## KIKSCYYLPCFVTS [T3-loop 5]
[1]
  Effect of synthetic peptides on VEGF binding to VEGFR-1 (in words): unable to inhibit sVEGFR-1-VEGF complexes
[2]
  Inhibition of laser-induced CNV (overall statement): no angio-inhibitory activity in vitro or in vivo

## RGFTKMPHVQYIHTEASESL [T3-N peptide]
[1]
  Effect of synthetic peptides on VEGF binding to VEGFR-1 (in words): unable to inhibit sVEGFR-1-VEGF complexes
[2]
  Inhibition of laser-induced CNV (overall statement): not N-peptide inhibit laser-induced CNV
[2]; listed as N-terminal
  Inhibition of laser-induced CNV (overall statement): no angio-inhibitory activity in vitro or in vivo
